Data from patent US8415479B2, “Inhibitor of plasminogen activator inhibitor-1” (Renascience Co., Ltd., priority 2008, dated 2013).

Experiments:
PAI-1 [1] = biological target: T1, PAI-1 (Homo sapiens, UniProt P05121); test: Measurement of PAI-1 inhibitory activity (t-PA / chromogenic substrate S-2288); settings: statement in words referring to the test example (compound at 20 μM or 50 μM); numeric PAI-1 activities (%) only in FIGS. 1 to 7
Description: The change in PAI-1 activity can be examined by setting, as an index, a reaction product produced by the action of t-PA on a substrate. […] It can be judged that when the amount of reaction product is larger, the PAI-1 inhibitory action is higher.
More specifically, human-derived PAI-1 was added to a 0.1% Tween 80-containing 100 mM Tris-HCl (pH 8) solution containing each of the above compounds in a given concentration (20 μM or 50 μM), and incubated at 37° C. for 15 minutes. Subsequently, human-derived tissue plasminogen activator (t-PA) (manufactured by American Diagnostica, Inc. (USA); the same applies hereinafter) adjusted to 0.3 pmol/μL, was added thereto, and further incubated at 37° C. for 15 minutes.

PAI-1 [2] = biological target: T1, PAI-1; test: Reference Test Example (2) evaluation of fibrinolytic action (fibrin plate, mixture of PAI-1, t-PA and test compound); assay type: biochemical; design: purchased Molecular Innovations Inc. (USA); settings: room temperature, 18 hours
Description: The compounds a and b were evaluated for fibrinolytic action in accordance with the document (Matsuo, O. et al., Haemostasis, 16, 43-50 (1986)).
More specifically, an aqueous solution (containing 25 mM barbital-sodium, 50 mM NaCl, and 25 mM CaCl2) containing a concentration of 1.5 mg/mL of fibrinogen (produced by Organon Teknica) was added, on a 9 cm-plate, to thrombin dissolved in 0.2 mL of physiological saline (10NIH U/mL: produced by Mochida Pharmaceutical Co., Ltd.), and the mixture was allowed to stand at room temperature for 2 hours. Using this mixture, fibrinolysis assay was conducted.
Namely, a mixture of PAI-1, t-PA, and each of the test compounds was dropped onto the plate and incubated at room temperature for 18 hours. After the incubation, fibrinolysis due to plasminogen activation was measured from the lysis area on the plate.

PAI-1 [3] = biological target: T1, PAI-1; test: Reference Test Example (1) PAI-1 inhibitory activity assay (t-PA / S-2288); assay type: biochemical; design: purchased Molecular Innovation(s) Inc. (USA); settings: concentrations of 35 μM and 50 μM; FIG. 8
Description: P-nitranilide removed from the chromogenic substrate (S-2288) by t-PA action was measured using a spectrophotometer at an absorbance of 405 nm at 5-minute intervals for 30 minutes.
Comparative tests were carried out in the same manner using, in place of the above test compounds, a compound (tiplaxtinin) of the formula below used as an antithrombotic drug in US clinical trials (provided that the given concentrations were 20, 35, and 50 μM).
FIGS. 8 (A), (B), and (C) each show PAI-1 activity (%) when the compound a (concentrations: 20, 35, and 50 μM), the compound b (concentrations: 20, 35, and 50 μM), and tiplaxtinin (comparative compound) (concentrations: 20, 35, and 50 μM) are added, respectively.

[4] = tested on: mouse model with pulmonary fibrosis artificially induced by bleomycin; test: Reference Test Example (3) effects on bleomycin-induced pulmonary fibrosis; assay type: in vivo, C57BL/6 mouse; settings: scored from 0 to 8 (method of Ashcort et al.); bleomycin + compound b 200 mg/kg p.o. twice/day for 14 days; FIG. 9
Description: A C57BL/6 mouse (male, body weight: 19 to 21 g) was intraperitoneally anesthetized with pentobarbital, and an incision was made on the cervical organ. Ten mice were used as controls. The control mice (n=10) were endotracheally administered bleomycin (produced by Nippon Kayaku Co., Ltd.) (1.5 U/kg) lysed in physiological saline, twice a day for 14 days. On the other hand, the test mice were subjected to forcible oral administration with the compound b (200 mg/kg), suspended in a 0.5% carboxymethyl cellulose aqueous solution, twice a day for 14 days, in addition to the above endotracheal administration. Then, the lung tissues taken from these control mice and the test mice were analyzed, and further assayed for hydroxyproline levels. The hydroxyproline levels in the lung tissues were assayed in terms of the level in the hydrolysate of the lung tissues as described in the method of Kivirikko et al. (Anal. Biochem. 19, 249-255 (1967)). The levels (severity) of pulmonary fibrosis were scored from 0 to 8, based on the method of Ashcort et al. (J. Clin. Pathol. 41, 467-470 (1988)). Further, the control mice and the test mice were assayed for plasma PAI-1 activity (ng/mL).

T1 sequence (P05121 24-402): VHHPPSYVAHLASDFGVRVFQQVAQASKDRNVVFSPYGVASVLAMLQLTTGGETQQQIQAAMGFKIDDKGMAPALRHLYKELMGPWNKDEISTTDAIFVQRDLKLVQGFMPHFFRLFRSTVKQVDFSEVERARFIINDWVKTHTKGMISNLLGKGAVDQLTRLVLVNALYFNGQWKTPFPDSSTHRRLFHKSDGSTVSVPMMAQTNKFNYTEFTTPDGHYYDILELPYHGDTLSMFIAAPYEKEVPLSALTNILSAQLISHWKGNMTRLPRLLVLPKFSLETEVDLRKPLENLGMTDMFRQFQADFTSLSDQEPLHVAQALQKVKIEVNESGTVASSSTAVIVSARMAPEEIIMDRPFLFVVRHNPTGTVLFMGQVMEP

O=C(COCC(=O)Nc1ccc(Cl)cc1C(=O)O)Nc1ccc(-c2ccncc2)cc1 [Compound 1, 5-chloro-2-([(2-oxo-2-([4-(pyridin-4-yl)phenyl]amino)ethoxy)acetyl]amino)benzoic acid]
inhibitory action on PAI-1 activity (PAI-1 [1]): excellent inhibitory action on PAI-1 activity

O=C(COCC(=O)Nc1ccc(Cl)cc1C(=O)O)Nc1cccc(-c2ccncc2)c1 [Compound 2, 5-chloro-2-([(2-oxo-2-([3-(pyridin-4-yl)phenyl]amino)ethoxy)acetyl]amino)benzoic acid]
inhibitory action on PAI-1 activity (PAI-1 [1]): excellent inhibitory action on PAI-1 activity

O=C(COCC(=O)NC1CCCCCCCCCCC1)Nc1ccc(Cl)cc1C(=O)O [Compound 11, 5-chloro-2-(([2-(cyclododecylamino)-2-oxoethoxy]acetyl)amino)benzoic acid]
inhibitory action on PAI-1 activity (PAI-1 [1]): excellent inhibitory action on PAI-1 activity

O=C(COCC(=O)N(c1ccccc1)C1CCCCC1)Nc1ccc(Cl)cc1C(=O)[O-].[Na+] [Compound 15, 5-chloro-2-[((2-[cyclohexyl(phenyl)amino]-2-oxoethoxy)acetyl)amino]benzoic acid.sodium salt]
inhibitory action on PAI-1 activity (PAI-1 [1]): excellent inhibitory action on PAI-1 activity

Cc1ccc(-c2ccc(F)cc2)cc1NC(=O)C(=O)Nc1ccc(Cl)cc1C(=O)[O-].[Na+] [Compound 20, 5-chloro-2-(([(4′-fluoro-4-methylbiphenyl-3-yl)amino](oxo)acetyl)amino)benzoic acid.sodium salt]
inhibitory action on PAI-1 activity (PAI-1 [1]): excellent inhibitory action on PAI-1 activity

CC(=O)Nc1ccc(-c2ccc(C)c(NC(=O)COCC(=O)Nc3ccc(Cl)cc3C(=O)O)c2)cc1 [Compound 44, 2-([(2-([4′-(acetylamino)-4-methylbiphenyl-3-yl]amino)-2-oxoethoxy)acetyl]amino)-5-chlorobenzoic acid]
inhibitory action on PAI-1 activity (PAI-1 [1]): excellent inhibitory action on PAI-1 activity

O=C(COCC(=O)Nc1ccc(Cl)cc1C(=O)O)Nc1cccc(Cc2ccoc2)c1 [Compound 55, 5-chloro-2-([(2-([3-(furan-3-ylmethyl)phenyl]amino)-2-oxoethoxy)acetyl]amino)benzoic acid]
inhibitory action on PAI-1 activity (PAI-1 [1]): excellent inhibitory action on PAI-1 activity

O=C(COCC(=O)Nc1ccc(Cl)cc1C(=O)O)Nc1cccc(-c2cccs2)c1 [Compound 63, 5-chloro-2-([(2-oxo-2-([3-(thiophen-2-yl)phenyl]amino)ethoxy)acetyl]amino)benzoic acid]
inhibitory action on PAI-1 activity (PAI-1 [1]): excellent inhibitory action on PAI-1 activity

O=C(COCC(=O)Nc1ccc(Cl)cc1C(=O)O)Nc1ccc(-c2ccoc2)cc1 [Compound 64, 5-chloro-2-([(2-([4-(furan-3-yl)phenyl]amino)-2-oxoethoxy)acetyl]amino)benzoic acid]
inhibitory action on PAI-1 activity (PAI-1 [1]): excellent inhibitory action on PAI-1 activity

CCC(CC(=O)Nc1scc(-c2ccccc2)c1C(=O)O)C(=O)Nc1scc(-c2ccccc2)c1C(=O)O (centres unmarked) [compound a, 2-[3-(3′-carboxy-4′-phenylthiophen-2′-ylcarbamoyl)-pentanoylamino]-4-phenylthiophen-3-carboxylic acid]
fibrinolytic action (lysis area on fibrin plate) (PAI-1 [2]): inhibit fibrinolysis suppression caused by PAI-1
PAI-1 activity inhibitory action compared with tiplaxtinin (PAI-1 [3]): higher PAI-1 activity inhibitory action at concentrations of 35 μM and 50 μM than tiplaxtinin

CCC(CC(=O)Nc1scc(-c2cccs2)c1C(=O)O)C(=O)Nc1scc(-c2cccs2)c1C(=O)O (centres unmarked) [compound b, 2-[3-(3′-carboxy-4′-thienylthiophen-2′-ylcarbamoyl)-pentanoylamino]-4-thienylthiophen-3-carboxylic acid]
fibrosis score [4]: 2.9±0.42
fibrinolytic action (lysis area on fibrin plate) (PAI-1 [2]): inhibit fibrinolysis suppression caused by PAI-1
PAI-1 activity inhibitory action compared with tiplaxtinin (PAI-1 [3]): higher PAI-1 activity inhibitory action at concentrations of 35 μM and 50 μM than tiplaxtinin
